Laboratory results: publication PMC8347364 (International Journal of Molecular Sciences, 2021)

Experiments:
ureG = target: T1, ureG (uncultured rumen bacterium, UniProt A0A6M3RDS9); assay: malachite green GTPase assay, single concentration […], almost […] inhibition; format: biochemical
T1 construct: Strep-tagged UreG (GenBank ID: MN660252)

(UniProt A0A6M3RDS9) = target: T2, (UniProt A0A6M3RDS9); assay: malachite green GTPase assay (IC50); Lineweaver-Burk Ki […]; CD change; ITC of nickel binding in its presence; format: biochemical, uncultured rumen bacterium
T2 construct: gene ureG; Strep-tagged UreG (GenBank ID: MN660252)
T2 sequence (A0A6M3RDS9 1-203): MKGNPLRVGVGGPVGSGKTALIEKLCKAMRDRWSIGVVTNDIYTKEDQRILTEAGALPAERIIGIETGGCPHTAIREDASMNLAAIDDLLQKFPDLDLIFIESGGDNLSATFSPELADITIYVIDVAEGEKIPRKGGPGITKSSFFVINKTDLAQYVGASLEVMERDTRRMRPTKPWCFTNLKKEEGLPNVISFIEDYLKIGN

T1 sequence (A0A6M3RDS9 1-203): as above

SMILES	inhibition at 100 µM (ureG) [%]	IC50 ((UniProt A0A6M3RDS9)) [µM]
C=C(C)[C@@H]1CC[C@]2(C(=O)O)CC[C@]3(C)[C@H](CC[C@@H]4[C@@]5(C)CC[C@H](O)[C@@](C)(CO)[C@@H]5CC[C@]43C)[C@@H]12 [anemosapogenin]	~100	
COc1ccc2c(c[n+](C)c3c4cc5c(cc4ccc23)OCO5)c1OC [chelerythrine chloride]		18.1
O=C(/C=C/c1ccc(O)c(O)c1)O[C@H]1[C@H](O)C[C@](O)(C(=O)O)C[C@H]1OC(=O)/C=C/c1ccc(O)c(O)c1 [isochlorogenic acid B]	~100	
